How the values were obtained:
male ICR mice = experiment: Carrageenan-induced paw swelling in mice; assay type: in vivo; details: 10 mg/kg intragastric; for Paw swelling_0.5 h (%): 0.5 h; for Paw swelling rate_1 h (%): 1 h; for Paw swelling rate_2 h (%): 2 h
Method: The inhibiting effects of compounds H01, H07, H11, H12, H14, H15, H22, H25, H29, H30, H33, H39 and H44 on paw swelling in mice were determined after intragastric administration by using male ICR mice (ShanghaiSippr-BK laboratory animal Co. Ltd.), aged 8 weeks and weighing 22-24 g as test animals. The anti-inflammatory pharmacodynamics characteristic of the compounds of the invention was discussed.
A certain amount of compounds were taken and dissolved in 4% Tween 80/0.5% hydroxy propyl methyl cellulose solution. A volume of intragastric administration in mice was 10 ml/kg.
Mice were given 10 mg/kg compounds H01, H07, H11, H12, H14, H15, H22, H25, H29, H30, H33, H39, and H44 and the positive drug indomethacin (Diamond Reagent Co., Ltd., China) by intragastric administration at the dosages shown in the table below and 20 μL 1% (W/V) carrageenan was injected subcutaneously into the plantar 0.5 h later. A paw volume was measured with a paw swelling meter before and at different time points after modeling (0.5 h, 1 h and 2 h). According to the formula: paw swelling rate=(paw volume after administration−basic paw volume)/basic paw volume×100, the inhibiting effect of the compounds on paw volume was calculated. The basic paw volume was a paw volume before administration.

[1] = Pharmacokinetic test after intragastric administration; assay type: in vivo; details: Sprague-Dawley, mouse, plasma, po, SD mice, 5 mg/kg intragastric; for AUC(0-t): read-out: Area under the curve (AUC0-24, ng/ml · h); for Cmax: read-out: Plasma concentration (Cmax, ng/ml); for half-life: read-out: half life (T1/2, h) (converted)
Method: Drug concentrations of compounds H01, H07, H11, H12, H14, H15, H22, H25, H29, H30, H33, H39 and H44 intragastrically administrated in plasma by using LC/MS/MS method at various time points were determined by using Sprague-Dawley (SD) […], aged 7-8 weeks and weighing […] as test animals. Pharmacokinetic behavior of the compounds of the invention in […] was studied and its pharmacokinetic characteristics were evaluated.
A certain amount of compounds was taken and dissolved in 50% PEG400/water to prepare a uniform solution.
Mice were administered intragastrically with the above compounds with a dosage of 5 mg/kg. Blood (0.2 ml) was taken from orbits before administration and 0.083 h, 0.25 h, 0.5 h, 1.0 h, 2.0 h, 4.0 h, 6.0 h, 8.0 h, 12.0 h and 24.0 h after administration. The blood was placed in anticoagulant tubes containing dipotassium ethylene glycol diethyl ether diamine tetraacetic acid, centrifugated at 6000 rpm at 4° C. for 10 minutes to separate plasma and saved at −80° C.
50 μL plasma at various time was taken and 150 μL acetonitrile solution containing internal standard tolbutamide (Sigma, USA) was added, mixed and stirred for 5 minutes. After centrifugation for 5 minutes at 12,000 rpm, 100 μL supernatant was taken, mixed with 200 μL water, following by sample injection and analysis.
Liquid chromatogram system was LC-20AD UFLC High Performance Liquid Chromatography system. Mass spectrum system was AB Sciex API4000 triple quadrupole mass spectrometer equipped with Electron Spray Ionization (ESI) (Applied Biosystems, Canada). A software for controlling liquid chromatography-mass spectrometry and quantitative analysis was Anna Rust 1.6 (Applied Biosystems, Canada). Pharmacokinetic parameters were analyzed by WinNonlin (version 5.2, Pharsight, Mountain View, […]) non-compartment model.
The test compound was dissolved in dimethyl sulfoxide to prepare a stock solution with a concentration of 1 mg/mL. The solution was diluted with 50% acetonitrile to obtain a series of standard working solutions with concentrations of 10 μg/mL, 3 μg/mL, 1 μg/mL, 0.3 μg/mL, 0.1 μg/mL, 0.03 μg/mL and 0.01 μg/mL, and a series of standard quality control solutions with concentrations of 8 μg/mL, 0.5 μg/mL, 0.03 μg/mL. 5 μL standard solution was mixed with 45 μL blank plasma substrate uniformly to obtain standard solutions of each concentration of a standard curve (1000 ng/mL, 500 ng/mL, 200 ng/mL, 100 ng/mL, 10 ng/mL, 5 ng/mL, 2 and 1 ng/mL) and quality control solutions (plasma samples: 800 ng/mL, 50 and 3 ng/mL).
Internal standard tolbutamide solid powder was dissolved in dimethyl sulfoxide to prepare a 1 mg/mL stock solution. The stock solution was diluted with 100% acetonitrile to obtain 200 ng/mL solution as a protein precipitation solution.

TF-1 cell = TF-1 cell proliferation test; assay type: cell-based; details: Homo sapiens, 72 h
Sprague-Dawley (SD) mice = experiment: Concanavalin-induced paw swelling in mice; assay type: in vivo; details: 10 mg/kg intragastric; for Paw swelling rate_1 h (%): 1 h; for Paw swelling rate_2 h (%): 2 h; for Paw swelling rate_4 h (%): 4 h; for Paw swelling rate_6 h (%): 6 h
Method: The inhibiting effects of compounds H13, H14, H09, H11 and compounds of Example 12 on paw swelling in […] were determined after intragastric administration by using Sprague-Dawley (SD) […] (ShanghaiSippr-BK laboratory animal Co. Ltd.), aged 6-7 weeks and weighing 160-180 g as test animals. The anti-inflammatory pharmacodynamics characteristic of the compounds of the invention was discussed.
A certain amount of compounds were taken and dissolved in 4% Tween 80/0.5% hydroxy propyl methyl cellulose solution.
Mice were given compounds H01, H07, H11, H12, H14, H15, H22, H25, H29, H30, H33, H39, and H44 and the positive drug indomethacin (Diamond Reagent Co., Ltd., China) by intragastric administration at the dosages shown in the table below and 0.1 ml 0.03% (W/V) concanavalin was injected subcutaneously into the plantar 0.5 h later. A paw volume was measured with a paw swelling meter before modeling and 1 h, 2 h, 4 h and 6 h after modeling. According to the formula: paw swelling rate=(paw volume after administration−basic paw volume)/basic paw volume×100, the inhibiting effect of the compounds on paw volume was calculated. The basic paw volume was a paw volume before administration.

| Structure (SMILES) | Paw swelling_0.5 h (%) (male ICR mice) | Paw swelling rate_1 h (%) (male ICR mice) | Paw swelling rate_2 h (%) (male ICR mice) | AUC(0-t) [1] | Cmax [1] | half-life [1] | IC50 (TF-1 cell) | Paw swelling rate_1 h (%) (Sprague-Dawley (SD) mice) | Paw swelling rate_2 h (%) (Sprague-Dawley (SD) mice) | Paw swelling rate_4 h (%) (Sprague-Dawley (SD) mice) | Paw swelling rate_6 h (%) (Sprague-Dawley (SD) mice) |
| --- | --- | --- | --- | --- | --- | --- | --- | --- | --- | --- | --- |
| COc1nsc(NC(=O)N2C[C@H]3C[C@H](N(C)c4c(C#N)cnc5[nH]ccc45)C[C@H]3C2)n1 [Compound H07, (3aR,5s,6aS)-4-({2-[(3-methoxy-1,2,4-thiadiazole-5-yl)carbamoyl]-hexahydrocyclopenta[c]pyrrole-5-yl}-methyl-amino)-1H-pyrrolo[2,3-b]pyridin-5-carbonitrile] | 37.02 ± 1.35% | 42.33 ± 2.20% | 41.24 ± 3.36% | 1920 ± 20 ng·h/mL | 578 ± 43 ng/mL | 4.62 ± 0.87 h | 0.073 µM | 25.20 ± 2.10% | 32.10 ± 1.70% | 22.30 ± 4.20% | 21.30 ± 4.20% |
| C[C@@H]1CCN(C(=O)CC#N)C[C@@H]1N(C)c1c(C#N)cnc2[nH]ccc12 [Compound H11, 4-{[(3R,4R)-1-(2-cyanoacetyl)-4-methylpiperidin-3-yl]-methyl-amino}-1H-pyrrolo[2,3-b]pyridin-5-carbonitrile] | 30.22 ± 2.62% | 39.76 ± 1.20% | 40.25 ± 5.47% | 2620 ± 10 ng·h/mL | 428 ± 32 ng/mL | 8.53 ± 0.67 h | 0.68 µM | 23.50 ± 2.40% | 25.80 ± 3.30% | 31.00 ± 2.10% | 32.00 ± 2.10% |
| N#Cc1cnc2[nH]ccc2c1N[C@H]1C[C@@H](NS(=O)(=O)CCC(F)(F)F)C1 [Compound H12, (cis)-4-{[3-(3,3,3-trifluoropropanesulfonamido)-cyclobutyl-1-yl]-amino}-1H-pyrrolo[2,3-b]pyridin-5-carbonitrile] | 38.45 ± 4.37% | 45.64 ± 3.58% | 41.66 ± 5.38% | 1020 ± 266 ng·h/mL | 644 ± 82 ng/mL | 4.23 ± 0.47 h | 1.67 µM | 28.90 ± 2.00% | 23.10 ± 3.00% | 24.00 ± 2.90% | 24.00 ± 3.00% |
| CCCS(=O)(=O)N[C@H]1C[C@@H](N(C)c2c(C#N)cnc3[nH]ccc23)C1 [Compound H14, (cis)-4-{[3-(propanesulfonamido)-cyclobutyl-1-yl]-methyl-amino}-1H-pyrrolo[2,3-b]pyridin-5-carbonitrile] | 39.03 ± 4.53% | 40.65 ± 2.51% | 39.00 ± 4.25% | 915 ± 240 ng·h/mL | 438 ± 24 ng/mL | 2.11 ± 0.16 h | 0.63 µM | 32.10 ± 5.20% | 25.90 ± 5.00% | 25.50 ± 4.00% | 25.10 ± 4.20% |
| CN(c1c(C#N)cnc2[nH]ccc12)[C@H]1C[C@@H](NS(=O)(=O)CCC(F)(F)F)C1 [Compound H15, (cis)-4-{[3-(3,3,3-trifluoropropanesulfonamide)-cyclobutyl-1-yl]-methyl-amino}-1H-pyrrolo[2,3-b]pyridin-5-carbonitrile] | 36.02 ± 1.37% | 43.33 ± 2.30% | 43.24 ± 4.36% | 1520 ± 241 ng·h/mL | 518 ± 24 ng/mL | 5.11 ± 0.16 h | 0.073 µM | 24.50 ± 2.50% | 25.90 ± 3.40% | 32.00 ± 2.30% | 31.00 ± 2.30% |
| CN(c1c(C#N)cnc2[nH]ccc12)[C@H]1C[C@@H]2CN(C(=O)NCC(F)(F)F)C[C@@H]2C1 [Compound H22, (3aR,5s,6aS)-4-({2-[(2,2,2-trifluoroethyl)-carbamoyl]-hexahydrocyclopenta[c]pyrrole-5-yl}-methyl-amino)-1H-pyrrolo[2,3-b]pyridin-5-carbonitrile] | 31.22 ± 2.62% | 41.76 ± 1.20% | 42.25 ± 5.67% | 757 ± 169 ng·h/mL | 213 ± 22 ng/mL | 3.11 ± 0.64 h | 1.76 µM | 29.80 ± 2.00% | 29.10 ± 3.00% | 31.00 ± 2.90% | 31.00 ± 2.90% |
| CN(c1c(C#N)cnc2[nH]ccc12)[C@H]1C[C@@H]2CN(C(=O)Nc3ccc(Cl)c(C(F)(F)F)c3)C[C@@H]2C1 [Compound H25, (3aR,5s,6aS)-N-(4-chloro-3-(trifluoromethyl)phenyl)-5-((5-cyano-1H-pyrrolo[2,3-b]pyridin-4-yl)(methyl)amino)hexahydrocyclopentadiene[c]pyrrole-2(1H)-carboxamide] | 37.45 ± 4.37% | 44.64 ± 3.68% | 44.66 ± 5.58% | 1270 ± 231 ng·h/mL | 501 ± 17 ng/mL | 4.67 ± 0.23 h | 0.73 µM | 32.10 ± 5.20% | 26.90 ± 5.00% | 24.50 ± 4.00% | 24.50 ± 4.00% |

From patent US12398141B2 (SHANGHAI SYNERGY PHARMACEUTICAL SCIENCES CO., LTD, priority 2019, dated 2025)
